Results from patent publication US7307090B2, “Piperidine derivatives useful as modulators of chemokine receptor activity” (AstraZeneca AB, priority 2001, dated 2007).

SMILES | melting point
Cc1c(Cl)ccc(OC2CCN(C3CCN(S(=O)(=O)NC(=O)c4ccccc4)CC3)CC2)c1Cl [Example 5A, N-Benzoyl-4-(2,4-dichloro-3-methylphenoxy)-[1,4′-bipiperidine)-1′-sulfonamide] | 223 °C
O=C(NS(=O)(=O)N1CCC(N2CCC(Oc3ccc(Cl)c(Cl)c3)CC2)CC1)c1ccc(Cl)c(Cl)c1 [Example 8A, N-(3,4-Dichlorobenzoyl)-4-(3,4-dichlorophenoxy)-(1,4′-bipiperidine]-1′-sulfonamide] | 166 to 167 °C
Cc1ccc(S(=O)(=O)NS(=O)(=O)N2CCC(N3CCC(Oc4ccc(Cl)c(Cl)c4)CC3)CC2)cc1.[Na] | 242 to 243 °C
O=C(NC(=O)N1CCC(N2CCC(Oc3ccc(Cl)c(Cl)c3)CC2)CC1)c1ccccc1 [Example 7A, N-Benzoyl-4-(3,4-dichlorophenoxy)-[1,4′-bipiperidine]-1′-carboxamide] | 65 to 80 °C
O=C(NS(=O)(=O)N1CCC(N2CCC(Oc3ccc(Cl)c(Cl)c3)CC2)CC1)c1c[nH]c(=O)c2ccccc12 [Example 11A, 4-(3,4-Dichlorophenoxy)-N-[(1,2-dihydro-1-oxo-4-isoquinolinyl)carbonyl]-[1,4′-bipiperidine]-1′-sulfonamide] | 200 °C
